The values below come from patent US10183019B2, “Treatment of cancer with dihydropyrazino-pyrazines” (Signal Pharmaceuticals, LLC, priority 2013, dated 2019).

In experiment [1] the test system is HF2354 PDX (GBM neurosphere line HF2354). Description: Patient derived xenograft (PDX) survival study. It is filed as in vivo, nude mouse. The conditions noted are these: HF2354 PDX in nude mice; 5 mg/kg oral gavage once a day, Monday through Friday; monotherapy. As for the experimental part: FIG. 2: Kaplan-Meier survival analysis for HF2354 PDX line (end of study). Treatment schedule for survival (Rx) and target hit (TH) are indicated.
Immunocompromised mice (nude mouse NCRNU-M, TACONIC) were implanted with a GBM neurosphere line derived from fresh surgical specimens. The cell line was characterized as following:
Patient derived xenograft (PDX) treatments started four weeks prior to when the first animal was expected to become symptomatic. […] Control animals were administered vehicle alone. Target hit cohorts were treated with one dose of each compound and sacrificed 2 and 24 h later (n=3/group). As necessary, fluids and supplemental food were administered to ameliorate weight loss.

Experiment [2] relates to patient-derived GBM cell line 245. The experiment is described as follows: Gliomasphere Formation Assay. It is filed as cell-based. To be noted: cell line 245, Recurrent; 50% sphere formation vs DMSO control. As for the experimental part:
(§1) Primary patient-derived GBM tumor samples were dissociated and plated under culture conditions (i.e. DMEM/F12 medium supplemented with B27, 20 ng/mL bFGF, 50 ng/mL EGF, penicillin/streptomycin, L-glutamine and 5 ug/mL heparin) that produce gliomaspheres. Cells were plated at a density of 50 cells per well and allowed to acclimate overnight at 37° C. The Dihydropyrazino-Pyrazine Compounds were added to the cultures on Day 2 and replenished every 7 days. EGF and FGF were also replenished every 7 days. The cells were fixed with PFA/methanol when the smallest sphere was greater than 60 microns, typically 3-5 weeks. The cells were fixed with PFA/methanol and the next day assessed for cell number, using for example, SYTO-9 fluorescent DNA dye. Plates were read 48 h later with a laser scanning imager.

Experiment [3] concerns patient-derived GBM cell line 206. Description: Gliomasphere Formation Assay. It is filed as cell-based. The conditions noted are these: cell line 206, Recurrent, MGMT Unkn/Highly Expressed; 50% sphere formation vs DMSO control. Here is the method: as §1
Experiment [4] relates to patient-derived GBM cell line 282. The experiment is described as follows: Gliomasphere Formation Assay. The class given is cell-based. To be noted: cell line 282, Primary, MGMT ND; 50% sphere formation vs DMSO control. As for the experimental part:
as §1

Experiment [5] concerns patient-derived GBM cell line 217. The experiment is described as follows: Gliomasphere Formation Assay. The conditions noted are these: cell line 217, Primary; 50% sphere formation vs DMSO control. It is filed as cell-based. Here is the method: as §1
Experiment [6] deals with patient-derived GBM cell line 350. The experiment is described as follows: Gliomasphere Formation Assay. It is filed as cell-based. The conditions noted are these: cell line 350, Recurrent; 50% sphere formation vs DMSO control. Here is the method: as §1
Experiment [7] deals with patient-derived GBM cell line 250. Description: Gliomasphere Formation Assay. To be noted: cell line 250, Recurrent, MGMT Unkn/Highly Expressed; 50% sphere formation vs DMSO control. The class given is cell-based. As for the experimental part:
as §1

For experiment [8], the system named is patient-derived GBM cell line 309. The experiment is described as follows: Gliomasphere Formation Assay. The class given is cell-based. To be noted: cell line 309, Recurrent, MGMT ND; 50% sphere formation vs DMSO control. Here is the method:
as §1

Experiment [9] deals with patient-derived GBM cell line 296. The experiment is described as follows: Gliomasphere Formation Assay. The class given is cell-based. To be noted: cell line 296, Recurrent, MGMT status −; 50% sphere formation vs DMSO control. Here is the method:
as §1

The test system of experiment [10] is patient-derived GBM cell line 390. The experiment is described as follows: Gliomasphere Cell Number Assay. The class given is cell-based. To be noted: cell line 390, Primary, MGMT status −; 50% cell numbers vs DMSO control, Day 2 to Day 9; read-out: IC50 Cell Survival. Here is the method: (§2) Gliomasphere Cell Number Assay. Primary patient-derived GBM tumor samples were dissociated and plated under culture conditions that produce gliomaspheres (i.e. DMEM/F12 medium supplemented with B27, 20 ng/mL bFGF, 50 ng/mL EGF, penicillin/streptomycin, L-glutamine and 5 ug/mL heparin). Cells were plated at a density of 5000 cells/well and allowed to acclimate overnight at 37° C. The Dihydropyrazino-Pyrazine Compounds were added to the cultures on Day 2 and cells were kept in culture until Day 9. On Day 9, the cells were fixed with PFA/methanol and the next day assessed for cell number, using for example, SYTO-9 fluorescent DNA dye. Plates were read 48 h later with a laser scanning imager.

The subject of experiment [11] is patient-derived GBM cell line 245. The experiment is described as follows: Gliomasphere Cell Number Assay. The class given is cell-based. To be noted: cell line 245, Recurrent; 50% cell numbers vs DMSO control, Day 2 to Day 9; read-out: IC50 Cell Survival. Here is the method: as §2
Experiment [12] relates to patient-derived GBM cell line 206. The experiment is described as follows: Gliomasphere Cell Number Assay. The conditions noted are these: cell line 206, Recurrent, MGMT Unkn/Highly Expressed; 50% cell numbers vs DMSO control, Day 2 to Day 9; read-out: IC50 Cell Survival. It is filed as cell-based. As for the experimental part:
as §2

Experiment [13] deals with patient-derived GBM cell line 254. Description: Gliomasphere Cell Number Assay. It is filed as cell-based. The conditions noted are these: cell line 254, Recurrent; 50% cell numbers vs DMSO control, Day 2 to Day 9; read-out: IC50 Cell Survival. Here is the method: as §2
The subject of experiment [14] is patient-derived GBM cell line 207. Description: Gliomasphere Cell Number Assay. The class given is cell-based. The conditions noted are these: cell line 207, Recurrent; 50% cell numbers vs DMSO control, Day 2 to Day 9; read-out: IC50 Cell Survival. Here is the method: as §2
Experiment [15] concerns patient-derived GBM cell line 308. The experiment is described as follows: Gliomasphere Cell Number Assay. The class given is cell-based. The conditions noted are these: cell line 308, Recurrent, MGMT Unkn/Highly Expressed; 50% cell numbers vs DMSO control, Day 2 to Day 9; read-out: IC50 Cell Survival. As for the experimental part:
as §2

In experiment [16] the test system is patient-derived GBM cell line 371. Description: Gliomasphere Cell Number Assay. It is filed as cell-based. The conditions noted are these: cell line 371, Recurrent, MGMT status −; 50% cell numbers vs DMSO control, Day 2 to Day 9; read-out: IC50 Cell Survival. Here is the method:
as §2

The test system of experiment [17] is patient-derived GBM cell line 250. Description: Gliomasphere Cell Number Assay. The class given is cell-based. The conditions noted are these: cell line 250, Recurrent, MGMT Unkn/Highly Expressed; 50% cell numbers vs DMSO control, Day 2 to Day 9; read-out: IC50 Cell Survival. Here is the method: as §2
The test system of experiment [18] is patient-derived GBM cell line 248. Description: Gliomasphere Cell Number Assay. It is filed as cell-based. To be noted: cell line 248, Recurrent, MGMT status Slightly elevated; 50% cell numbers vs DMSO control, Day 2 to Day 9; read-out: IC50 Cell Survival. As for the experimental part:
as §2

For experiment [19], the system named is patient-derived GBM cell line 336. Description: Gliomasphere Cell Number Assay. The class given is cell-based. To be noted: cell line 336, Recurrent, MGMT status +; 50% cell numbers vs DMSO control, Day 2 to Day 9; read-out: IC50 Cell Survival. As for the experimental part:
as §2

In experiment [20] the test system is patient-derived GBM cell line 301. Description: Gliomasphere Cell Number Assay. The class given is cell-based. The conditions noted are these: cell line 301, Primary, MGMT status −; 50% cell numbers vs DMSO control, Day 2 to Day 9; read-out: IC50 Cell Survival. As for the experimental part: as §2

On to `CCN1C(=O)CNc2ncc(-c3ccc(-c4nc[nH]n4)nc3C)nc21` [Compound 1, 1-ethyl-7-(2-methyl-6-(1H-1,2,4-triazol-3-yl)pyridin-3-yl)-3,4-dihydropyrazino[2,3-b]pyrazin-2(1H)-one], for which the “survival (Kaplan-Meier)” value in experiment [1] was “significantly increased survival”. Also, the IC50 worked out at 22.6 nM in experiment [2]; 142 nM in experiment [3]; 25.8 nM in experiment [4]; 42.1 nM in [5]; 39.3 nM in experiment [6]; 39.6 nM in experiment [7]. The IC50 in [8] was 159 nM; in experiment [9], 544 nM; in experiment [10], 65.9 nM; in experiment [11], 68.7 nM; in [12], 163 nM; in experiment [13], 99.6 nM. The half-maximal inhibitory concentration (IC50) turned out to be 100 nM in experiment [14]; 68.2 nM in experiment [15]; 368 nM in experiment [16]; 70.6 nM in experiment [17]; 441 nM in experiment [18]; 231 nM in experiment [19]. The IC50 in [20] was determined as 313 nM.
